Measurements as given in patent EP2072037A1, “Hair dyeing compositions” (Farmen International Cosmetics Distribution S.p.A, priority 2007, dated 2009).

Test system: HaCaT cells
Experiment: MTT cytotoxicity assay on human keratinocytes (skin irritation potential)
Format: cell-based
Conditions: two hours
From the text: To evaluate the skin irritation potential of compositions C and D (containing paraphenyldiamine) illustrated in example 1, an in vitro test was used, consisting of a cytotoxicity assay performed on a line of human keratinocytes (transformed human keratinocytes, HaCaT cells) that maintain full epidermal differentiation capability.
In this case, the goal of the test was to determine the effects of compositions C and D illustrated in Example 1 on the proliferation of keratinocytes through the cell vitality test, indirectly measured by MTT staining (Mossnam T, […], J. Immunol. Methods, 65:55-63).
The specimen comprising composition C or D was previously mixed with oxidant cream in the proportion 1:1.5 and left to act for 15 minutes. […]
The cells were treated for two hours to simulate the conditions of use of the dye. At the end of the two hours, the cells were subjected to the MTT test.
From this value, the irritant potential of composition C and composition D can be estimated. Negative control comprised no treatment, whereas the surfactant sodium lauryl sulphate (SLS), whose cytotoxicity is well known, was used as positive control. Each experiment was done in triplicate, on cells plated 24 hours previously.

With CCCCCCCCCCCCOS(=O)(=O)[O-].[Na+] [SLS, sodium lauryl sulphate] the “Cell vitality % (versus negative control)” value (shortened to “Cell vitality %”) (Dose 0.03 mg/mL) was 101.5%, the “Cell vitality %” value (Dose 0.06 mg/mL) was 109.7% and the “Cell vitality %” value (Dose 0.12 mg/mL) was 74.0%. The “Cell vitality %” value (Dose 0.25 mg/mL) was 3.4%, the “Cell vitality %” value (Dose 0.5 mg/mL) was 3.1% and the IC50 (Homo sapiens, 2 h, concentration reducing cell vitality by 50% versus untreated cells, theoretical value from regression curve, MTT) was 148 µg/mL.
